Source: ChEMBL document CHEMBL4715830, “Design, synthesis and biological evaluation of suramin-derived dual antagonists of the proinflammatory G protein-coupled receptors P2Y and GPR17” (Eur J Med Chem, 2020)
Calls of active or inactive are those of the source. The calls are words filed in the database; no cut-off is given here.

Columns and labels:
[1] = target: P2Y purinoceptor 4 (Homo sapiens) (UniProt P51582); assay: (§1) Antagonist activity at human P2Y4 receptor expressed in human 1321N1 cells assessed as inhibition of UTP-induced intracellular calcium influx at 10 to 100 uM preincubated for 20 mins followed by UTP addition measured at 0.4 secs interval for 60 times by Oregon Green BAPTA-1/AM dye-based fluorescence assay; type: functional, cell-based; conditions: dose 10-100 µM
[2] = target: P2Y purinoceptor 6 (Rattus norvegicus) (UniProt Q63371); assay: as §1, with “rat P2Y6” for “human P2Y4”, “UDP-induced” for “UTP-induced”, “UDP” for “UTP”; type: functional, cell-based; conditions: dose 10-100 µM
[3] = target: P2Y purinoceptor 1 (Homo sapiens) (UniProt P47900); assay: Antagonist activity at human P2Y1 receptor expressed in human 1321N1 cells assessed as inhibition of ADP-induced intracellular calcium influx at 10 uM preincubated for 20 mins followed by ADP addition measured at 0.4 secs interval for 60 times by Oregon Green BAPTA-1/AM dye-based fluorescence assay; type: functional, cell-based
[4] = target: P2Y purinoceptor 12 (Homo sapiens) (UniProt Q9H244); assay: Antagonist activity at recombinant human Gi/Go-coupled GP2Y12 receptor expressed in CHOK1 cells assessed as inhibition of 2-(Methylthio)ADP-induced inhibition of beta-arrestin recruitment at 10 uM by pathhunter assay; type: cell-based; conditions: CHO-K1
[5] = target: T1, P2Y purinoceptor 14 (Homo sapiens) (UniProt Q15391); assay: Antagonist activity at recombinant human Gi/Go-coupled GP2Y14 receptor expressed in CHOK1 cells assessed as inhibition of […]-induced inhibition of beta-arrestin recruitment at 10 uM by pathhunter assay; type: cell-based
T1 sequence (whole entry): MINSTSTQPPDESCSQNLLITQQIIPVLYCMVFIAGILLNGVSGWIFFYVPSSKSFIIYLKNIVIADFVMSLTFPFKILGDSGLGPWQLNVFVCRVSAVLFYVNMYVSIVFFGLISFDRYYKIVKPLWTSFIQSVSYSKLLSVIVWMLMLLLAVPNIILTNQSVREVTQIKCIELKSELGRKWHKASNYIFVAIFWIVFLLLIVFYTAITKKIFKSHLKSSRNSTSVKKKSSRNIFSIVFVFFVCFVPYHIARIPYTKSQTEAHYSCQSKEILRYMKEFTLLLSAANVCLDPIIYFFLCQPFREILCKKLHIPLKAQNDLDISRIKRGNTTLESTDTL

[6] = Chemical stability of compound in pH 3 MeOH/water solution measured after 24 hrs by HPLC-MS analysis; type: physicochemical; conditions: buffer, pH 3, 24 h
[7] = Chemical stability of compound in pH 7 MeOH/water solution measured after 24 hrs by HPLC-MS analysis; type: physicochemical; conditions: buffer, pH 7, 24 h
[8] = Chemical stability of compound in pH 7 MeOH/water solution at 70 degC measured after 24 hrs by HPLC-MS analysis; type: physicochemical; conditions: buffer, pH 7, 24 h
[9] = Drug metabolism in pH 9 MeOH/water solution assessed as methyl 4-(2-chlorobenzamido)benzenesulfonate formation measured after 24 hrs by HPLC-MS analysis
P2Y purinoceptor 6 = P2Y purinoceptor 6 (Rattus norvegicus, UniProt Q63371); assay: Antagonist activity at rat P2Y6 receptor expressed in human 1321N1 cells assessed as inhibition of UDP-induced intracellular calcium influx preincubated for 20 mins followed by UDP addition measured at 0.4 secs interval for 60 times by Oregon Green BAPTA-1/AM dye-based fluorescence assay; type: functional, cell-based
P2Y purinoceptor 2 = P2Y purinoceptor 2 (Homo sapiens, UniProt P41231); assay: Antagonist activity at human P2Y2 receptor expressed in human 1321N1 cells assessed as inhibition of ATP-induced intracellular calcium influx preincubated for 20 mins followed by ATP addition measured at 0.4 secs interval for 60 times by Oregon Green BAPTA-1/AM dye-based fluorescence assay; type: functional, cell-based
[10] = target: T2, Uracil nucleotide/cysteinyl leukotriene receptor (Homo sapiens, UniProt Q13304); assay: (§2) Antagonist activity at human GPR17 expressed in human 1321N1 cells assessed as inhibition of ATP-induced intracellular calcium influx preincubated for 20 mins followed by ATP addition measured at 0.4 secs interval for 60 times by Oregon Green BAPTA-1/AM dye-based fluorescence assay; type: functional, cell-based
[11] = target: T2, Uracil nucleotide/cysteinyl leukotriene receptor; assay: as §2, with “influx at 10 uM” for “influx”, “assay relative to control” for “assay”; type: functional, cell-based

Chain of P2Y purinoceptor 4 (Homo sapiens) (P51582 whole entry): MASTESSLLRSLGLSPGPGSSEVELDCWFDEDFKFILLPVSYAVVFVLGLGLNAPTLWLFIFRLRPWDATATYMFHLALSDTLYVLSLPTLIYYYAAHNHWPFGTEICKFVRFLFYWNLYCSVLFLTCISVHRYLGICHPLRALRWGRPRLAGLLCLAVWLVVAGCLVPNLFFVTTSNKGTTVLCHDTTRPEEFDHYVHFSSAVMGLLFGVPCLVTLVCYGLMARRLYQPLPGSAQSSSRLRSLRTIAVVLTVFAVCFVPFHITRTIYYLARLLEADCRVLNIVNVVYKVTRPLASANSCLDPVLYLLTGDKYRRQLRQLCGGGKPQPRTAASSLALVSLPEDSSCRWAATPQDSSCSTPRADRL
Chain of P2Y purinoceptor 1 (Homo sapiens) (P47900 whole entry): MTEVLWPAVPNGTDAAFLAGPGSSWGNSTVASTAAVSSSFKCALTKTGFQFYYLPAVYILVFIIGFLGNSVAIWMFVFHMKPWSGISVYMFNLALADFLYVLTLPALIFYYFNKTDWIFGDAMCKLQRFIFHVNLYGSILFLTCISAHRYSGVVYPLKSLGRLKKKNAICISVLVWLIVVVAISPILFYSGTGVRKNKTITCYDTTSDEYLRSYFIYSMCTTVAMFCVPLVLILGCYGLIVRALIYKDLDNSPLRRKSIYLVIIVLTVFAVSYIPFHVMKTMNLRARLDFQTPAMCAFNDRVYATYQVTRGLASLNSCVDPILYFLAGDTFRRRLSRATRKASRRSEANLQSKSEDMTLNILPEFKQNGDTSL
Chain of P2Y purinoceptor 6 (Rattus norvegicus) (Q63371 whole entry): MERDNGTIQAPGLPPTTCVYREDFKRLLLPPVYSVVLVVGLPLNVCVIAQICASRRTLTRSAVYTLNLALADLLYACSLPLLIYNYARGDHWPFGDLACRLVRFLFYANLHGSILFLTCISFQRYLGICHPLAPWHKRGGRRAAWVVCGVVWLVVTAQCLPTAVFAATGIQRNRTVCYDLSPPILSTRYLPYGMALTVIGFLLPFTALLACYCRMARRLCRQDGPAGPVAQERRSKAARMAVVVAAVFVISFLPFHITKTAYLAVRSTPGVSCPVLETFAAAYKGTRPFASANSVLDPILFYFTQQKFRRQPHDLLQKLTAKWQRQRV
Chain of P2Y purinoceptor 12 (Homo sapiens) (Q9H244 whole entry): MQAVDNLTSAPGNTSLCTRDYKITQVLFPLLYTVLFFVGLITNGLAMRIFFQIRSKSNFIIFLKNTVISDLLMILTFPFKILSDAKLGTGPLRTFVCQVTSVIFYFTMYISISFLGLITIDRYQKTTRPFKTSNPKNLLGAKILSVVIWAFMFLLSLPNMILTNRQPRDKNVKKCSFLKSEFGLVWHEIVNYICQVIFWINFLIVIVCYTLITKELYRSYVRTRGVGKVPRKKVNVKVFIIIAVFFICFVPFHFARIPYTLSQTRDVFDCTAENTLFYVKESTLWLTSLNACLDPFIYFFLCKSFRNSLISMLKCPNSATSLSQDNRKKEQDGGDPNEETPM
T2 sequence (Q13304 whole entry): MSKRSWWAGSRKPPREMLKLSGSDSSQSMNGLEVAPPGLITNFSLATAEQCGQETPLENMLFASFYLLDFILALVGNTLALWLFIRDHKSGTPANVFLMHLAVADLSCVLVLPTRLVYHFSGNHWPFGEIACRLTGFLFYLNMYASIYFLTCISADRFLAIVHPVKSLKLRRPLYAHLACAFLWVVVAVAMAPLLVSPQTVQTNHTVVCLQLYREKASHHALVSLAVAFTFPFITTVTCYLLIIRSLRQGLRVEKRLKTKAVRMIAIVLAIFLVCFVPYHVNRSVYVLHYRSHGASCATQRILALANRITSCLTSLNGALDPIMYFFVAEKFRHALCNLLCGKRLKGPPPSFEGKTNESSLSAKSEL
Chain of P2Y purinoceptor 6 (Q63371 whole entry): as the sequence (Q63371 whole entry) above
Chain of P2Y purinoceptor 2 (P41231 whole entry): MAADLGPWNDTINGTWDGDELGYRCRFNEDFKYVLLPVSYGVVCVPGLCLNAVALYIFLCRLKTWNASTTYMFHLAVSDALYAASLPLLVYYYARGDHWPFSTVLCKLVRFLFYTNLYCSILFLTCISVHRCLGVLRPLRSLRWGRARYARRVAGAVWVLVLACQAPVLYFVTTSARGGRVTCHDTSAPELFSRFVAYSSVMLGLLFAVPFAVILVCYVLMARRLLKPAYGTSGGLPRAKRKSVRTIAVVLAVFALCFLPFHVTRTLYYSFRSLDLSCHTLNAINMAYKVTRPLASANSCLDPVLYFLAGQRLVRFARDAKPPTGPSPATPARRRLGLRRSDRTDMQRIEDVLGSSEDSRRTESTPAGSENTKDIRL

| inhibition [1] | inhibition [2] | inhibition [3] | inhibition [4] | inhibition [5] | Stabilty [6] | Stabilty [7] | Stabilty [8] | IC50 (P2Y purinoceptor 6) [µM] | IC50 (P2Y purinoceptor 2) [µM] | IC50 [10] [µM] | inhibition [11] [%] | SMILES | Drug metabolism [9] [%] |
| --- | --- | --- | --- | --- | --- | --- | --- | --- | --- | --- | --- | --- | --- |
| inactive | inactive | inactive | inactive | inactive | Stable | Stable | Stable | – | – | – | – | O=C(Nc1ccc(S(=O)(=O)Oc2cccc([N+](=O)[O-])c2)cc1)c1ccccc1Cl | 1.4 |
| inactive | inactive | inactive | inactive | inactive | – | – | – | – | – | – | – | Cc1cccc(C(=O)Nc2ccc(S(=O)(=O)Nc3cccc([N+](=O)[O-])c3)cc2)c1 | – |
| inactive | inactive | inactive | inactive | inactive | – | – | – | – | – | – | – | Cc1cccc(NC(=O)c2ccc(NC(=O)c3ccc([N+](=O)[O-])cc3)cc2)c1 | – |
| inactive | inactive | inactive | inactive | inactive | – | – | – | – | – | – | – | Cc1cccc(C(=O)Nc2cccc(NC(=O)c3ccc([N+](=O)[O-])cc3)c2)c1 | – |
| inactive | inactive | inactive | inactive | inactive | – | – | – | – | – | – | – | Cc1cccc(C(=O)Nc2cccc(S(=O)(=O)Oc3cccc([N+](=O)[O-])c3)c2)c1 | – |
| inactive | inactive | inactive | inactive | inactive | – | – | – | – | – | – | – | CCC(=O)c1cccc(C(=O)Nc2ccc(S(=O)(=O)Oc3cccc([N+](=O)[O-])c3)cc2)c1 | – |
| inactive | – | inactive | inactive | inactive | – | – | – | 6.19 | – | – | – | Cc1cccc(C(=O)Nc2ccc(S(=O)(=O)Oc3cccc([N+](=O)[O-])c3)cc2)c1 | – |
| inactive | inactive | inactive | inactive | inactive | – | – | – | – | – | – | – | Cc1cccc(C(=O)Nc2ccc(NC(=O)Nc3cccc(C(=O)O)c3)cc2)c1 | – |
| inactive | inactive | inactive | inactive | inactive | – | – | – | – | – | – | – | O=C(Nc1cccc(S(=O)(=O)Oc2cccc([N+](=O)[O-])c2)c1)c1cccc(F)c1 | – |
| inactive | inactive | inactive | inactive | inactive | – | – | – | – | – | – | – | CC(=O)c1cccc(C(=O)Nc2ccc(S(=O)(=O)Oc3cccc([N+](=O)[O-])c3)cc2)c1 | – |
| inactive | inactive | inactive | inactive | inactive | – | – | – | – | – | – | – | COc1cccc(C(=O)Nc2ccc(S(=O)(=O)Oc3cccc([N+](=O)[O-])c3)cc2)c1 | – |
| inactive | inactive | inactive | inactive | inactive | – | – | – | – | – | – | – | COC(=O)c1cccc(NC(=O)Nc2ccc(NC(=O)c3cccc(C)c3)cc2)c1 | – |
| inactive | inactive | inactive | inactive | inactive | – | – | – | – | – | – | – | Cc1ccc(C(=O)Nc2ccc(S(=O)(=O)Nc3cccc([N+](=O)[O-])c3)cc2)cc1 | – |
| inactive | inactive | inactive | inactive | inactive | – | – | – | – | – | – | – | O=C(Nc1ccc(S(=O)(=O)Oc2cccc([N+](=O)[O-])c2)cc1)c1cccc(Cl)c1 | – |
| inactive | inactive | inactive | inactive | inactive | – | – | – | – | – | – | – | O=C(Nc1ccc(S(=O)(=O)Oc2cccc([N+](=O)[O-])c2)cc1)c1cccc(C(F)(F)F)c1 | – |
| inactive | inactive | inactive | inactive | inactive | – | – | – | – | – | – | – | Cc1ccc(C(=O)Nc2ccc(S(=O)(=O)Oc3cccc([N+](=O)[O-])c3)cc2)cc1 | – |
| inactive | inactive | inactive | inactive | inactive | – | – | – | – | – | – | – | O=C(Nc1ccc(S(=O)(=O)Oc2cccc([N+](=O)[O-])c2)cc1)c1ccccc1 | – |
| inactive | inactive | inactive | inactive | inactive | – | – | – | – | – | – | – | Cc1cccc(C(=O)Nc2ccc(S(=O)(=O)NCc3cccc(Cl)c3)cc2)c1 | – |
| – | – | – | – | – | – | – | – | – | > 100 | > 100 | 33 | Cc1ccc(C(=O)Nc2ccc(S(=O)(=O)O)c3cc(S(=O)(=O)O)cc(S(=O)(=O)O)c23)cc1NC(=O)c1cccc(NC(=O)Nc2cccc(C(=O)Nc3cc(C(=O)Nc4ccc(S(=O)(=O)O)c5cc(S(=O)(=O)O)cc(S(=O)(=O)O)c45)ccc3C)c2)c1 [SURAMIN HEXASODIUM] | – |
| inactive | inactive | inactive | inactive | inactive | – | – | – | – | – | – | – | Cc1cccc(NC(=O)c2cccc(NC(=O)c3cccc([N+](=O)[O-])c3)c2)c1 | – |
| inactive | inactive | inactive | inactive | inactive | – | – | – | – | – | – | – | COC(=O)c1cccc(NC(=O)Nc2cccc(C(=O)Nc3cccc(C)c3)c2)c1 | – |
